The values below come from EPA's ToxValDB 9.5 (doi:10.2903/j.efsa.2008.185r).

Structures are written as SMILES. Values joined by “and” are separate entries in the source; they are usually repeats but may differ in a detail not shown here. Equal entries are not always repeated. Some results are limits rather than exact numbers.

Data set [1] has as its system Apis mellifera. The following applies: acute; duration: 48 hours; oral; unspecified; mortality.
In data set [2] the test system is Mus musculus. The following applies: acute, oral, mortality.
For data set [3], the system named is Oncorhynchus mykiss.
In data set [4] the test system is Anas platyrhynchos. The following applies: short-term; oral; feed; mortality.
Data set [5] deals with Tagia sp. The following applies: acute; duration: 14 days; mortality.
Data set [6] has as its system Colinus virginianus. The following applies: mortality.
Data set [7] has as its system Daphnia magna. The following applies: chronic/long-term; duration: 21 days; reproduction.
Data set [8] has as its system Canidae. The following applies: oral, Dog Other, clinical chemistry.
In data set [9] the test system is Rattus norvegicus. The following applies: for LD50: acute, oral.
For data set [10], the system named is Coturnix coturnix. The following applies: acute, oral, mortality.
Data set [11] deals with Aphidius rhopalosiphi. The data set can be described thus: LR50; higher = less toxic. The following applies: not reported; mortality.
Data set [12] deals with Typhlodromus pyri. The data set can be described thus: LR50; higher = less toxic. The following applies: not reported; mortality.

What is called NOAEL is the highest dose or exposure tested at which no adverse effect was seen. In the case of `Cc1nnc(-c2ccccc2)c(=O)n1N` [Metamitron], the LD50 in data set [1] is greater than 97.2 µg/piece; in data set [2] (M), 691 mg/kg-day; in data set [2], 644 mg/kg-day; in [4], greater than 1590 mg/kg-day; in [6] (acute, oral, diet), greater than 904 mg/kg-day; in [9] (F, mortality) it was 1480 mg/kg-day. Further, the LD50 in [9] (M, mortality) was 1180 mg/kg-day; in data set [9] (mortality) it was < 2000 mg/kg-day and 4320 mg/kg-day; in [10] (F) it was 1300 mg/kg-day; in data set [10] (M) it was 1360 mg/kg-day. Also, the LC50 in data set [3] (acute, duration: 96 hours, mortality) is greater than 190 µg/mL; in [5], 914 mg/kg. Besides, the NOEC came to 7 mg/L in [3] (chronic/long-term, duration: 21 days, growth) and 10 mg/L in data set [7]. Besides, the NOAEL in [6] (reproduction developmental) is 81.5 mg/kg-day; in [8] (chronic, duration: 2 years, diet), 3 mg/kg-day; in [8] (subchronic, duration: 90 days), 3.6 mg/kg-day; in data set [9] (chronic, F, mortality), 53.8 mg/kg-day; in data set [9] (chronic, M, mortality), 36.4 mg/kg-day; in [9] (reproduction developmental, body weight), 10 mg/kg-day. The LR50 in data set [11] and in data set [12] was 14400 g/ha in each case.
